Values joined by “and” are separate entries in the source; they are usually repeats but may differ in a detail not shown here. Identical values can stand only once.
Assays:
22Rv1 cells = test: Growth assay (SRB), 22Rv1; type: cell-based, human
Procedure: (§1) To determine the IC50 of drug treatments on growth, cells were seeded in 96-well culture plates. Two days after seeding, the cells were treated with increasing concentrations of drugs and incubated for 4 days. Cell number was determined using the SRB assay (Skehan et al, [1990]), and IC50 values were calculated using non-linear regression curve fitting in GraphPad Prism v10. For all other growth experiments, cells were seeded into 96-well plates, and appropriate drugs were added 2 days after seeding. Cells were then incubated in an IncuCyte Zoom live-cell imager, with cell confluency measured every 6 h. Cell doubling times were determined by non-linear curve fitting (exponential growth equation) in GraphPad Prism v10.

MCF7-CDK7-D97N cells = test: Growth assay (SRB), MCF7 CDK7-D97N knock-in; type: cell-based, human; details: for IC50: MCF7-CDK7-D97N, SRB; for IC50 / % Growth: 4 days; for % Growth: MCF7 CDK7 D99N, biological reps
Procedure: as §1
Alt-R^TM S.p. Cas9 nuclease V3, Alt-R CRISPR-Cas9 crRNA, TracrRNA and the donor templates were obtained from Integrated DNA Technologies. […] Cells were treated with 0.7 µM of Alt-R HDR Enhancer V2 to improve HRD efficiency. Sequences of the CRISPRs in the crRNA and the donor templates are shown in the Reagents and tools table. Donor templates were designed to include non-coding substitutions to aid genome DNA PCR for identifying knock-in events and to facilitate cloning; these substitutions are noted in the Reagents and tools table.

[1] = 22Rv1, Log10 Conc. (nM) 0.09, 4 days, biological reps
[2] = 22Rv1, Log10 Conc. (nM) 0.69, 4 days, biological reps
[3] = 22Rv1, Log10 Conc. (nM) 1.29, 4 days, biological reps
[4] = 22Rv1, Log10 Conc. (nM) 1.89, 4 days, biological reps
[5] = 22Rv1, Log10 Conc. (nM) 2.49, 4 days, biological reps
[6] = 22Rv1, Log10 Conc. (nM) 3.10, 4 days, biological reps
[7] = 22Rv1, Log10 Conc. (nM) 3.70, 4 days, biological reps
[8] = 22Rv1, Log10 Conc. (nM) -0.52, 4 days, biological reps
[9] = 22Rv1, Log10 Conc. (nM) 4.30, 4 days, biological reps

SMILES	% Growth (22Rv1 cells; [1])	% Growth (22Rv1 cells; [2])	% Growth (22Rv1 cells; [3])	% Growth (22Rv1 cells; [4])	% Growth (22Rv1 cells; [5])	% Growth (22Rv1 cells; [6])	% Growth (22Rv1 cells; [7])	% Growth (22Rv1 cells; [8])	IC50 (MCF7-CDK7-D97N cells) [nM]	% Growth (MCF7-CDK7-D97N cells; Log10 Conc. (nM) 0.09)	% Growth (MCF7-CDK7-D97N cells; Log10 Conc. (nM) 0.69)	% Growth (MCF7-CDK7-D97N cells; Log10 Conc. (nM) 1.29)	% Growth (MCF7-CDK7-D97N cells; Log10 Conc. (nM) 1.89)	% Growth (MCF7-CDK7-D97N cells; Log10 Conc. (nM) 2.49)	% Growth (MCF7-CDK7-D97N cells; Log10 Conc. (nM) -0.52)	% Growth (MCF7-CDK7-D97N cells; Log10 Conc. (nM) -1.12)	% Growth (22Rv1 cells; 22Rv1, Log10 Conc. (nM) 0.09)	% Growth (22Rv1 cells; 22Rv1, Log10 Conc. (nM) 0.69)	% Growth (22Rv1 cells; 22Rv1, Log10 Conc. (nM) 1.29)	% Growth (22Rv1 cells; 22Rv1, Log10 Conc. (nM) 1.89)	also measured
CN(C)C/C=C/C(=O)Nc1ccc(C(=O)Nc2cccc(Nc3ncc(Cl)c(-c4c[nH]c5ccccc45)n3)c2)cc1 [THZ1]	93.20% and 88.05%	85.45% and 77.80%	56.44% and 44.90%	5.80% and -0.07%	-4.12% and -6.31%	-6.49% and -7.67%	-6.63% and -7.61%	98.36% and 93.94%	68.7	97.12% and 98.47% and 91.37%	86.82% and 92.10% and 89.13%	76.30% and 76.07% and 72.54%	35.33% and 47.81% and 46.77%	-1.00% and 8.40% and 7.81%	99.89% and 102.56% and 100.45%	96.07% and 101.58% and 94.36%	–	–	–	–	% Growth (22Rv1 cells; 22Rv1, Log10 Conc. (nM) -1.12, 4 days, biological reps): 96.18% and 94.83%
CC1(C)CC[C@H](Nc2ncc(C(F)(F)F)c(-c3c[nH]c4c(P(C)(C)=O)c(C#N)ccc34)n2)CN1 [SY-5609]	82.01% and 80.30%	43.29% and 45.22%	12.60% and 14.50%	17.65% and 20.49%	15.20% and 17.83%	8.43% and 10.99%	4.30% and 6.00%	88.38% and 88.87%	–	88.22% and 97.32% and 92.10% and 108.93%	88.11% and 85.92% and 101.83% and 99.60%	81.14% and 79.33% and 92.68% and 97.87%	89.93% and 77.62% and 97.65% and 101.83%	82.25% and 82.01% and 84.62% and 85.57%	98.29% and 101.10% and 99.90% and 99.11%	96.96% and 102.40% and 98.33% and 102.73%	59.88% and 63.28%	24.70% and 25.33%	14.01% and 10.35%	12.24% and 10.17%	% Growth (22Rv1 cells; 22Rv1, Log10 Conc. (nM) 2.49): 11.07% and 8.36%; % Growth (22Rv1 cells; 22Rv1, Log10 Conc. (nM) 3.10): 1.88% and 3.47%; % Growth (22Rv1 cells; 22Rv1, Log10 Conc. (nM) 3.70): 0.13% and -0.45%; % Growth (22Rv1 cells; 22Rv1, Log10 Conc. (nM) -0.52): 83.49% and 90.26%; % Growth (22Rv1 cells; 22Rv1, Log10 Conc. (nM) -1.12): 94.90% and 93.56%; % Growth (22Rv1 cells; [9]): -11.21% and -9.41%; IC50 (MCF7-CDK7-D97N cells; Homo sapiens, 96 h): 1550 nM; % Growth (MCF7-CDK7-D97N cells; Log10 Conc. (nM) 3.10): 41.10% and 27.90% and 46.54% and 47.24%
CC(C)c1cnn2c(NCc3ccccc3-n3cccn3)nc(OC3CCCNC3)nc12 (centres unmarked) [LDC4297]	97.43% and 97.15%	91.35% and 89.50%	69.89% and 67.14%	34.11% and 32.16%	25.80% and 22.21%	19.07% and 18.11%	12.19% and 10.17%	96.00% and 93.75%	284	97.54% and 102.97% and 111.53%	89.88% and 95.95% and 106.23%	86.58% and 89.18% and 107.98%	78.14% and 75.55% and 98.88%	36.43% and 41.92% and 46.72%	94.29% and 106.05% and 120.50%	–	67.07% and 96.13%	66.51% and 88.13%	42.25% and 51.76%	9.89% and 17.57%	% Growth (22Rv1 cells; 22Rv1, Log10 Conc. (nM) 2.49): 11.47% and 9.07%; % Growth (22Rv1 cells; 22Rv1, Log10 Conc. (nM) 3.10): 2.69% and 4.03%; % Growth (22Rv1 cells; 22Rv1, Log10 Conc. (nM) 3.70): -4.63% and -0.97%; % Growth (22Rv1 cells; 22Rv1, Log10 Conc. (nM) 4.30): -12.52% and -9.59%; % Growth (22Rv1 cells; 22Rv1, Log10 Conc. (nM) -0.52): 95.29% and 95.79%; % Growth (22Rv1 cells; [9]): -1.74% and -5.36%; Resistance (Fold) (MCF7-CDK7-D97N cells; MCF7-CDK7-D97N vs MCF7 WT): 38.8 fold; % Growth (MCF7-CDK7-D97N cells; Log10 Conc. (nM) 3.10): 15.57% and 25.31% and 26.65%

From PMC12528448, “Resistance to CDK7 inhibitors directed by acquired mutation of a conserved residue in cancer cells” (The EMBO Journal, 2025)
